According to the NIST ThermoML archive (doi:10.1021/je7002836):

What was measured:
[1] = xn = mol fraction of the nth substance listed; conditions: 101 kPa, Liquid
[2] = molar heat capacity at constant pressure; xn = mol fraction of the nth substance listed; conditions: 101 kPa, Liquid
[3] = 101 kPa, Liquid
[4] = molar heat capacity at constant pressure; conditions: 101 kPa, Liquid

CCO [ethanol] + CCCC[n+]1cccc(C)c1.F[B-](F)(F)F
x2 = 0
Conditions	mass density, [1] [kg/m3]	molar heat capacity at constant pressure, [2] [J/K/mol]
293.15 K	789.6	111.3
298.15 K	785.3	113.3
303.15 K	781	115.3
308.15 K	776.7	117.5
313.15 K	772.3	119.7
318.15 K	767.8	122.1

O [water] + CCCC[n+]1cccc(C)c1.F[B-](F)(F)F
x2 = 0
Conditions	mass density, 308.15 K [kg/m3]	molar heat capacity at constant pressure, 293.15 K [J/K/mol]	molar heat capacity at constant pressure, 298.15 K [J/K/mol]	molar heat capacity at constant pressure, 303.15 K [J/K/mol]	molar heat capacity at constant pressure, 308.15 K [J/K/mol]	molar heat capacity at constant pressure, 313.15 K [J/K/mol]	molar heat capacity at constant pressure, 318.15 K [J/K/mol]
[1]	994.1	–	–	–	–	–	–
[2]	–	75.4	75.3	75.3	75.2	75.2	75.3

C[N+](=O)[O-] [nitromethane]
Conditions	mass density, [3] [kg/m3]	molar heat capacity at constant pressure, [4] [J/K/mol]
293.15 K	1140.2	106.6
298.15 K	1133.4	106.9
303.15 K	1126.6	107.3
308.15 K	1119.7	107.7
313.15 K	1112.9	108.2
318.15 K	1106	108.6

CCCC[n+]1cccc(C)c1.F[B-](F)(F)F [1-butyl-3-methylpyridinium tetrafluoroborate]
Conditions	mass density, [3] [kg/m3]	molar heat capacity at constant pressure, [4] [J/K/mol]
293.15 K	1188.6	385.8
298.15 K	1185.2	387.7
303.15 K	1181.7	390.1
308.15 K	1178.3	392.8
313.15 K	1174.9	395.9
318.15 K	1171.6	399.3

CCO [ethanol]
Conditions	mass density, [3] [kg/m3]	molar heat capacity at constant pressure, [4] [J/K/mol]
293.15 K	789.6	111.3
298.15 K	785.3	113.3
303.15 K	781	115.3
308.15 K	776.7	117.5
313.15 K	772.3	119.7
318.15 K	767.8	122.1

CCCC[n+]1cccc(C)c1.F[B-](F)(F)F [1-butyl-3-methylpyridinium tetrafluoroborate] + C[N+](=O)[O-]
x1 = 1
Conditions	mass density, [1] [kg/m3]	molar heat capacity at constant pressure, [2] [J/K/mol]
293.15 K	1188.6	385.8
298.15 K	1185.2	387.7
303.15 K	1181.7	390.1
308.15 K	1178.3	392.8
313.15 K	1174.9	395.9
318.15 K	1171.6	399.3
